According to US10472352B2, “Rac inhibitors” (Geneyus LLC, priority 2017, dated 2019):

Legend:
HUVECs [1] = assay: Cellular Proliferation Assay; type: cell-based; details: 25 uM, cells counted day 0 through day 4
Protocol: 25,000 cells were seeded in 6-well plates. The next day, vehicle (DMSO) or 25 μM 0032253 was added to cells (Day 0). Cells were counted on days 0 through day 4 using a hemocytometer.

WM1158 cells = assay: Western Blot Analysis of phosphorylated AKT, MEK1/2, ERK1/2; type: cell-based; details: increasing concentrations, two hours, vs DMSO control
Description: Western blot analysis is used to identify specific proteins from a complex mixture of proteins extracted from cells. Equal amount of protein is run on the SDS-PAGE gel and after separating the protein mixture, it is transferred to a membrane. The transferred protein is then probed with a combination of antibodies: one antibody specific to the protein of interest (primary antibody) and another antibody specific to the host species of the primary antibody (secondary antibody). The secondary antibody is complexed with an enzyme, which when combined with an appropriate substrate, will produce a detectable signal.
WM1158 cells were treated with increasing concentrations of 0032253 for two hours. SDS-PAGE was conducted on cell lysates and Western Blot analysis was conducted on samples for total and phosphorylated AKT, MEK1/2, and ERK1/2.

HUVECs [2] = assay: HUVEC Tube Formation Assay; type: cell-based; details: doses above 6.25 μM, 8 h, Matrigel
Protocol: The endothelial cell tube formation assay is an in vitro assay that is widely accepted to accurately reflect number of terminal stages of the angiogenic process such as attachment, migration and differentiation into tubular structures. In this model, endothelial cells are cultured on a monolayer of reconstituted basement membrane components (Matrigel) and form, in a few hours, capillary-like structure. Therefore, this system is a useful and powerful tool for rapidly screening anti-angiogenic agents by monitoring inhibition of endothelial cells morphogenesis on extracellular matrix.
HUVECs (5×10^3) were seeded on top of Matrigel in a 24-well plate. The cells were treated either with DMSO or different concentrations of the Rac1 inhibitor 0032253 (5, 6.25, 10, 12.5 μM) for 8 h in triplicate. The plates were scanned by LICOR Odyssey Imaging system.

[3] = system: MCF-7 human breast cancer cell line; assay: Cell Viability Assay (MCF7), PrestoBlue; type: cell-based; details: MCF7, 72 h, MCF-7 cells, three days after drug treatment
Protocol: In order to determine a compound's effect on cell viability, PrestoBlue assays were performed as previously described by Kuhn et al. (2013) with modifications. MCF-7 human breast cancer and IGR-1 human melanoma cell lines were seeded into 96-well plates 24 hours prior to addition of drug. Cells were treated with 0 to 200 μM (11 concentrations) of compound solubilized in DMSO, adjusting the final concentration of DMSO to 1% in the well. Three days after drug treatment, cell viability was measured by adding PrestoBlue (Life Technologies Ltd.; cat. No. A13262) reagent directly to wells containing media/drug to reach a final concentration of 10%. PrestoBlue is a modified molecule of the common Alamar Blue probe used to determine viability based on the ability of a cell to metabolize a nonfluorescent compound (resazurin) to a florescent molecule (resorufin). Following a 1 hour incubation period, total well fluorescence was measured using the microplate reader M1000 pro (Tecan) with excitation 560-5 nm and emission 590-5 nm. […] The percentage of living cells was then computed by comparison with control wells. Kuhn, Jonas et al., Assay and Drug Development Technologies, March 2013, Label-Free Cytotoxicity Screening Assay by Digital Holographic Microscopy.

[4] = target: His-Rac1 / GST-PBD (PAK Binding Domain) (Homo sapiens, UniProt P63000); assay: Rac Activation AlphaScreen Assay (Rac1 AS); type: biochemical; details: 500 nM GTPγS, 37° C., 1 hour; 'positive' = signal generated was higher than the positive control
Protocol: AlphaScreen® assays were performed in 96-well microplates in a final reaction volume of 60 μl. Recombinant His-Rac1, recombinant GST-PBD (PAK Binding Domain), donor and acceptor beads (PerkinElmer), and inhibitors were incubated in exchange buffer (20 mM Tris pH 7.5, 50 mM NaCl, 1 mM MgCl2, 1 mM EDTA, 500 nM GTPγS (guanosine 5′-[γ-thio]triphosphate)) at 37° C. Readings were performed on a Tecan M1000 pro microplate reader after 1 hour.

HUVECs [5] = assay: Cell Migration Assay (Boyden chamber); type: cell-based; details: 5 uM
Protocol: An essential characteristic of malignant cells is their ability to migrate, invade host tissues and to produce metastases. In order to evaluate the capacity of one compound to affect the ability of tumoral cells to migrate, migration assays were performed using HUVEC cells.
HUVECs (2.5×10^4) were seeded onto uncoated filters in a 24-well transwell Boyden chamber ([…]; Costar) and allowed to migrate in the presence and absence of different doses of the Rac1 inhibitor 0032253 (5, 6.25, 10, 12.5, 20, 25 μM). The cells that migrated to the underside of the filter were stained with crystal violet and counted under the bright field microscopy.

Rac1 protein = target: T1, Rac1 protein (Homo sapiens, UniProt P63000); assay: Fluorescence Polarization Assay (Rac1 FP); type: binding; details: 125 nM his-tagged Rac1, 12.5 nM Bodipy-TR GTPγS, 30 minutes at 37° C.
T1 construct: purchased Cytoskeleton Inc. RC01
Protocol: Direct binding of Rac1 compound inhibitors to Rac1 protein was performed using fluorescence polarization (FP). Briefly, Rac1 inhibitors were initially dissolved in DMSO and then serial drug dilutions in exchange buffer (20 mM Tris pH 7.5, 50 mM NaCl, 1 mM MgCl, 1 mM EDTA) were prepared in a flat black 96-well half-area plate (Greiner). Recombinant his-tagged Rac1 protein (Cytoskeleton Inc. Cat. # RC01) was added to the inhibitors at a final concentration of 125 nM along with 12.5 nM Bodipy-TR GTPγS (Life Technologies Inc. Cat. # G35780) in exchange buffer and incubated for 30 minutes at 37° C. in exchange buffer. After 30 minutes of incubation. FP was measured on the M1000 Pro (Tecan) fluorescent plate reader with 590 nm±5 nm excitation and 625 nm±5 nm emission spectra settings.

SMILES: FC(F)(F)c1ccc2c(SCCCCCCn3cc(CN4CCOCC4)nn3)ccnc2c1 (racemic) [Compound 0032253, 4-({6-[4-(morpholin-4-ylmethyl)-1H-1,2,3-triazol-1-yl]hexyl}sulfanyl)-7-(trifluoromethyl)quinoline]
- HUVEC proliferation (HUVECs [1]): completely inhibits the ability of HUVECs to proliferate
- expression of phosphorylated AKT (WM1158 cells): reduced as compared to DMSO control
- expression of phosphorylated ERK1/2 (WM1158 cells): reduced as compared to DMSO control
- expression of phosphorylated MEK1/2 (WM1158 cells): reduced as compared to DMSO control
- HUVEC tube formation (HUVECs [2]): significantly reduce the ability of HUVECs to form tube like structures
- IC50 [3]: 4.38 µM
- Rac1 AS IC50(uM) [4]: positive
- HUVEC migration through a Boyden Chamber (HUVECs [5]): impairs the ability of HUVECs to migrate through a Boyden Chamber
- IC50 (Rac1 protein): 3.42 µM
